# Measured values as given in US11613538B2, “Method of inhibiting or reducing a viral infection” (PTC Therapeutics, Inc., priority 2009, dated 2023).
# Test system: hypoxia-induced VEGF production in HeLa cells
# Assay: cells
# Type: cell-based, human
# Conditions: Homo sapiens, HeLa
row,Compound,EC50 [nM]
1,CC(C)COC(=O)N1CCc2c([nH]c3ccc(Cl)cc23)C1c1ccc(OCCn2cc(C#N)c(N)n2)cc1 (centres unmarked) [Compound 1408],< 8
2,CC(C)COC(=O)N1CCc2c([nH]c3ccc(Cl)cc23)C1c1ccc(OCCNc2ncc[nH]2)cc1 (centres unmarked) [Compound 1409],200 to 1000
3,[H]/N=C(\N)NCCOc1ccc(C2c3[nH]c4ccc(Cl)cc4c3CCN2C(=O)OCCOC)cc1 (centres unmarked) [Compound 1410],> 1000
4,COCCOC(=O)N1CCc2c([nH]c3ccc(Cl)cc23)C1c1ccc(OCCNc2cc(C)no2)cc1 (centres unmarked) [Compound 1411],200 to 1000
5,[H]/N=c1\scnn1CCOc1ccc(C2c3[nH]c4ccc(Cl)cc4c3CCN2C(=O)OCCOC)cc1 (centres unmarked) [Compound 1412],8 to 40
6,CCOC(=O)N1CCc2c([nH]c3cc(C(F)(F)F)ccc23)C1c1ccc(OC)cc1 (centres unmarked) [Compound 1423],> 1000
7,COc1ccc(C2c3[nH]c4cc(C(F)(F)F)ccc4c3CCN2C(=O)Oc2ccc(F)cc2)cc1 (centres unmarked) [Compound 1424],> 1000
8,COc1ccc(OC(=O)N2CCc3c([nH]c4cc(C(F)(F)F)ccc34)C2c2ccc(OC)cc2)cc1 (centres unmarked) [Compound 1425],> 1000
9,COc1ccc(C2c3[nH]c4c(C)cccc4c3CCN2C(=O)Oc2ccc(C)cc2)cc1 (centres unmarked) [Compound 1426],> 1000
10,COc1ccc(OC(=O)N2CCc3c([nH]c4c(C)cccc34)C2c2ccc(OC)cc2)cc1 (centres unmarked) [Compound 1427],> 1000
11,CCOC(=O)N1CCc2c([nH]c3c(C)cccc23)C1c1ccc(OC)cc1 (centres unmarked) [Compound 1428],> 1000
12,COc1ccc(C2c3[nH]c4c(C)cccc4c3CCN2C(=O)Oc2ccc(Cl)cc2)cc1 (centres unmarked) [Compound 1429],> 1000
13,CC#CCOC(=O)N1CCc2c([nH]c3c(C)cccc23)C1c1ccc(OC)cc1 (centres unmarked) [Compound 1430],> 1000
14,COC(=O)N1CCc2c([nH]c3c(C)cccc23)C1c1ccc(OC)cc1 (centres unmarked) [Compound 1431],> 1000
15,N=C1SCCN1CCCOc1ccc(C2c3[nH]c4ccc(Cl)cc4c3CCN2C(=O)OCCF)cc1 (centres unmarked) [Compound 1432],8 to 40
16,CCOC(=O)N1CCc2c([nH]c3ccc(Cl)cc23)C1c1ccc(OCCNc2ncncn2)cc1 (centres unmarked) [Compound 1433],< 8
17,CC#CCOC(=O)N1CCc2c([nH]c3ccc(Cl)cc23)C1c1ccc(OCCn2cc(C#N)c(N)n2)cc1 (centres unmarked) [Compound 1434],< 8
18,[H]/N=C(\N)NCCOc1ccc(C2c3[nH]c4ccc(Cl)cc4c3CCN2C(=O)OCC(C)C)cc1 (centres unmarked) [Compound 1435],200 to 1000
19,CC(C)COC(=O)N1CCc2c([nH]c3ccc(Cl)cc23)C1c1ccc(OCCNc2ncncn2)cc1 (centres unmarked) [Compound 1436],< 8
20,COCCOC(=O)N1CCc2c([nH]c3ccc(Cl)cc23)C1c1ccc(OCCn2nc(N)cc2C)cc1 (centres unmarked) [Compound 1437],8 to 40
21,COCCOC(=O)N1CCc2c([nH]c3ccc(Cl)cc23)C1c1ccc(OCCn2cc(C#N)c(N)n2)cc1 (centres unmarked) [Compound 1438],40 to 200
22,CC#CCOC(=O)N1CCc2c([nH]c3cc(Cl)ccc23)C1c1ccc(OC)cc1 (centres unmarked) [Compound 1443],200 to 1000
23,COc1ccc(C2c3[nH]c4cc(Cl)ccc4c3CCN2C(=O)Oc2ccc(Cl)cc2)cc1 (centres unmarked) [Compound 1444],40 to 200
24,CC#CCOC(=O)N1CCc2c([nH]c3cc(Br)ccc23)C1c1ccc(OC(F)F)cc1 (centres unmarked) [Compound 1445],40 to 200
25,O=C(Oc1ccc(Cl)cc1)N1CCc2c([nH]c3cc(Br)ccc23)C1c1ccc(OC(F)F)cc1 (centres unmarked) [Compound 1446],40 to 200

row,Compound,EC50 [nM]
1,COc1ccc(OC(=O)N2CCc3c([nH]c4cc(Br)ccc34)C2c2ccc(OC(F)F)cc2)cc1 (centres unmarked) [Compound 1447],40 to 200
2,O=C(OCCF)N1CCc2c([nH]c3cc(Br)ccc23)C1c1ccc(OC(F)F)cc1 (centres unmarked) [Compound 1448],200 to 1000
3,O=C(Oc1ccccc1Cl)N1CCc2c([nH]c3cc(Br)ccc23)C1c1ccc(OC(F)F)cc1 (centres unmarked) [Compound 1449],200 to 1000
4,O=C(Oc1ccc(F)cc1)N1CCc2c([nH]c3cc(Br)ccc23)C1c1ccc(OC(F)F)cc1 (centres unmarked) [Compound 1450],40 to 200
5,COc1ccc(OC(=O)N2CCc3c([nH]c4cc(Cl)ccc34)C2c2ccc(OC)cc2)cc1 (centres unmarked) [Compound 1455],> 1000
6,CC#CCOC(=O)N1CCc2c([nH]c3cc(F)ccc23)C1c1ccc(C)cc1 (centres unmarked) [Compound 1456],> 1000
7,Cc1ccc(C2c3[nH]c4cc(F)ccc4c3CCN2C(=O)Oc2ccc(Cl)cc2)cc1 (centres unmarked) [Compound 1457],200 to 1000
8,COc1ccc(OC(=O)N2CCc3c([nH]c4cc(F)ccc34)C2c2ccc(F)cc2)cc1 (centres unmarked) [Compound 1458],> 1000
9,O=C(Oc1ccc(Cl)cc1)N1CCc2c([nH]c3cc(F)ccc23)C1c1ccc(F)cc1 (centres unmarked) [Compound 1459],> 1000
10,COc1ccc(OC(=O)N2CCc3c([nH]c4cc(F)ccc34)C2c2ccc(OC)cc2)cc1 (centres unmarked) [Compound 1460],> 1000
11,COc1ccc(C2c3[nH]c4cc(F)ccc4c3CCN2C(=O)Oc2ccc(Cl)cc2)cc1 (centres unmarked) [Compound 1461],200 to 1000
12,COc1ccc(OC(=O)N2CCc3c([nH]c4cc(F)ccc34)C2c2ccc(OC(F)F)cc2)cc1 (centres unmarked) [Compound 1462],200 to 1000
13,O=C(Oc1ccc(Cl)cc1)N1CCc2c([nH]c3cc(F)ccc23)C1c1ccc(OC(F)F)cc1 (centres unmarked) [Compound 1463],40 to 200
14,CCOC(=O)N1CCc2c([nH]c3ccc(Cl)cc23)C1c1ccc(OCC(O)CNC(=O)CC)cc1 (centres unmarked) [Compound 1464],8 to 40
15,CCOC(=O)N1CCc2c([nH]c3ccc(Cl)cc23)C1c1ccc(OCC(O)CNC(=O)C(C)C)cc1 (centres unmarked) [Compound 1465],8 to 40
16,CCOC(=O)N1CCc2c([nH]c3ccc(Cl)cc23)C1c1ccc(OCC(O)CNC(=O)C2CC2)cc1 (centres unmarked) [Compound 1466],8 to 40
17,CCOC(=O)N1CCc2c([nH]c3ccc(Cl)cc23)C1c1ccc(OCC(O)CNC(=O)c2ccncc2)cc1 (centres unmarked) [Compound 1467],< 8
18,CCOC(=O)N1CCc2c([nH]c3ccc(Cl)cc23)C1c1ccc(OCC(O)CNC(=O)c2cccnc2)cc1 (centres unmarked) [Compound 1468],< 8
19,CCOC(=O)N1CCc2c([nH]c3ccc(Cl)cc23)C1c1ccc(OCC(O)CNC(=O)c2ccccn2)cc1 (centres unmarked) [Compound 1469],< 8
20,CCOC(=O)NCC(O)COc1ccc(C2c3[nH]c4ccc(Cl)cc4c3CCN2C(=O)OCC)cc1 (centres unmarked) [Compound 1470],< 8
21,CCCOC(=O)NCC(O)COc1ccc(C2c3[nH]c4ccc(Cl)cc4c3CCN2C(=O)OCC)cc1 (centres unmarked) [Compound 1471],< 8
22,CCOC(=O)N1CCc2c([nH]c3ccc(Cl)cc23)C1c1ccc(OCC(O)CNC(=O)OCCOC)cc1 (centres unmarked) [Compound 1472],< 8
23,CCOC(=O)N1CCc2c([nH]c3ccc(Cl)cc23)C1c1ccc(OCC(O)CNS(=O)(=O)CC)cc1 (centres unmarked) [Compound 1473],< 8
24,CCOC(=O)N1CCc2c([nH]c3ccc(Cl)cc23)C1c1ccc(OCC(O)CNS(=O)(=O)C(C)C)cc1 (centres unmarked) [Compound 1474],8 to 40
25,CCOC(=O)N1CCc2c([nH]c3ccc(Cl)cc23)C1c1ccc(OCC(O)CNS(=O)(=O)C2CC2)cc1 (centres unmarked) [Compound 1475],< 8

row,Compound,EC50 [nM]
1,O=C(Oc1ccc(Cl)cc1)N1CCc2c([nH]c3ccc(Cl)cc23)C1c1ccc(OCCCN2CC[C@@H](O)C2)cc1 (some centres unmarked) [Compound 1476],40 to 200
2,COc1ccc(C2c3[nH]c4ccc(Cl)cc4c3CCN2C(=S)Oc2ccc(C)cc2)cn1 (centres unmarked) [Compound 1477],8 to 40
3,COc1ccc(OC(=O)N2CCc3c([nH]c4ccc(Cl)cc34)C2c2ccc(OC)nc2)cc1 (centres unmarked) [Compound 1478],40 to 200
4,COc1ccc(C2c3[nH]c4ccc(Cl)cc4c3CCN2C(=O)Oc2ccc(Cl)cc2)cn1 (centres unmarked) [Compound 1479],8 to 40
5,CCOC(=O)N1CCc2c([nH]c3ccc(Cl)cc23)C1c1ccc(OC)nc1 (centres unmarked) [Compound 1480],8 to 40
6,COc1ccc(C2c3[nH]c4ccc(Cl)cc4c3CCN2C(=O)OCC(C)C)cn1 (centres unmarked) [Compound 1481],8 to 40
7,CCOC(=O)N1CCc2c([nH]c3ccc(SC)cc23)C1c1ccc(OC)cc1 (centres unmarked) [Compound 1482],40 to 200
8,COc1ccc(C2c3[nH]c4ccc(SC)cc4c3CCN2C(=O)Oc2ccc(Cl)cc2)cc1 (centres unmarked) [Compound 1483],8 to 40
9,COc1ccc(OC(=O)N2CCc3c([nH]c4ccc(SC)cc34)C2c2ccc(OC)cc2)cc1 (centres unmarked) [Compound 1484],40 to 200
10,COc1ccc(C2c3[nH]c4ccc(SC)cc4c3CCN2C(=S)Oc2ccc(F)cc2)cc1 (centres unmarked) [Compound 1486],8 to 40
11,COc1ccc(C2NCCc3c2[nH]c2ccc(SC)cc32)cc1 (centres unmarked) [Compound 1487],> 1000
12,CCOC(=O)N1CCc2c([nH]c3ccc([S+](C)[O-])cc23)C1c1ccc(OC)cc1 (centres unmarked) [Compound 1488],> 1000
13,COc1ccc(C2c3[nH]c4ccc([S+](C)[O-])cc4c3CCN2C(=O)Oc2ccc(Cl)cc2)cc1 (centres unmarked) [Compound 1489],> 1000
14,COc1ccc(OC(=O)N2CCc3c([nH]c4ccc([S+](C)[O-])cc34)C2c2ccc(OC)cc2)cc1 (centres unmarked) [Compound 1490],> 1000
15,COc1ccc(C2c3[nH]c4ccc([S+](C)[O-])cc4c3CCN2C(=O)Oc2ccc(F)cc2)cc1 (centres unmarked) [Compound 1491],> 1000
16,CCC(C)OC(=O)N1CCc2c([nH]c3ccc([S+](C)[O-])cc23)C1c1ccc(OC)cc1 (centres unmarked) [Compound 1493],> 1000
17,COc1ccc(C2c3[nH]c4ccc([S+](C)[O-])cc4c3CCN2C(=O)OC(C)(C)C)cc1 (centres unmarked) [Compound 1494],> 1000
18,COc1ccc(C2NCCc3c2[nH]c2ccc([S+](C)[O-])cc32)cc1 (centres unmarked) [Compound 1495],> 1000
19,CCOC(=O)N1CCc2c([nH]c3ccc(S(C)(=O)=O)cc23)C1c1ccc(OC)cc1 (centres unmarked) [Compound 1496],> 1000
20,COc1ccc(C2c3[nH]c4ccc(S(C)(=O)=O)cc4c3CCN2C(=O)Oc2ccc(Cl)cc2)cc1 (centres unmarked) [Compound 1497],> 1000
21,COc1ccc(OC(=O)N2CCc3c([nH]c4ccc(S(C)(=O)=O)cc34)C2c2ccc(OC)cc2)cc1 (centres unmarked) [Compound 1498],> 1000
22,COc1ccc(C2c3[nH]c4ccc(S(C)(=O)=O)cc4c3CCN2C(=O)Oc2ccc(F)cc2)cc1 (centres unmarked) [Compound 1499],> 1000
23,COc1ccc(C2c3[nH]c4ccc(S(C)(=O)=O)cc4c3CCN2C(=S)Oc2ccc(F)cc2)cc1 (centres unmarked) [Compound 1500],> 1000
24,COc1ccc(C2c3[nH]c4ccc(S(C)(=O)=O)cc4c3CCN2C(=O)OC(C)(C)C)cc1 (centres unmarked) [Compound 1502],> 1000
